From patent publication US20090227556A1, “RECEPTOR TYROSINE KINASE INHIBITORS COMPRISING PYRIDINE AND PYRIMIDINE DERIVATIVES” (Eisai R&D Management Co., Ltd., priority 2008, published 2009)

How the values were obtained:
Format in all cases: biochemical
Conditions in all cases: recombinant human kinase
RET = target: T1, RET (Homo sapiens, UniProt P07949); assay: Tyrosine kinase inhibition, mobility shift assay (MSA)
T1 construct: purchased Carna Biosciences Inc. 08-159
Protocol: (§1) A test compound was dissolved in dimethyl sulfoxide to make a 10 mM solution, which was stored in a dark place at 4° C. until use.
(§2) Protein tyrosine kinases (recombinant human kinases) used in the study were the following products from Carna Biosciences Inc. (Kobe, Japan).
(§3) VEGFR-1 (FLT 1) (product number: 08-189) VEGFR-3 (FLT 4) (product number: 08-190) RON (product number: 08-152) RET (product number: 08-159) KIT (product number: 08-156)
(§4) Kinase activity was measured in a mobility shift assay (MSA) method (J. Biomolecular Screening, 11, 359-368, 2006) using QuickScout Screening Assist™ (Carna Biosciences Inc., commercial kit), and enzyme-linked immunoassay (ELISA).
(§5) 5 μl of the test substance solution obtained by dissolving or suspending in an assay buffer (20 mM Hepes, 0.01% Triton X-100, 1 mM dithiothreitol, pH 7.4) (4× final concentration) or 5 μl of a solvent (4% dimethyl sulfoxide-assay buffer) was dispensed into a polypropylene 384-well plate (Greiner Bio-One, product number 781280). Then, 5 μl of QuickScout Screening Assist™ MSA in an ATP/substrate/metal solution was added. Additionally, 10 μl of the kinase solution diluted with the assay buffer was added to initiate a reaction. For a blank, only 10 μl of the assay buffer was added. The kinase concentration and reaction conditions were in accordance with the protocol of QuickScout Screening Assist™ MSA. Then, the reaction was terminated by addition of 60 μl of a termination buffer of the QuickScout Screening Assist™ MSA, and the amount of a substrate (S) and a phosphorylated substrate (P) in the reaction solution were determined using LabChip3000 (Caliper Life Science, Massachusetts, U.S.A.) in accordance with the protocol of QuickScout Screening Assist™ MSA. The amounts of the S and P were represented by respective separated peak height. […] It was on the condition that the signal was determined as P/(P+S).

RON = target: T2, RON (Homo sapiens, UniProt Q04912); assay: as above
T2 construct: purchased Carna Biosciences Inc. 08-152
Protocol: as §1, §2, §3, §4, §5

VEGFR-1 (FLT 1) = target: T3, VEGFR-1 (FLT 1) (Homo sapiens, UniProt P17948); assay: as above
T3 construct: purchased Carna Biosciences Inc. 08-189
Protocol: as §1, §2, §3, §4, §5

VEGFR-3 (FLT 4) = target: T4, VEGFR-3 (FLT 4) (Homo sapiens, UniProt P35916); assay: as above
T4 construct: purchased Carna Biosciences Inc. 08-190
Protocol: as §1, §2, §3, §4, §5

KIT = target: T5, KIT (Homo sapiens, UniProt P10721); assay: Inhibitory action on KIT (ELISA)
T5 construct: purchased Carna Biosciences Inc. 08-156
Protocol: as §1, §2, §3, §4
10 μl of the test substance solution obtained by dissolving or suspending in the assay buffer (15 mM Tris, 0.01% Tween 20, 2 mM DTT, pH 7.5) (4× final concentration), or 10 μl of a solvent (4% dimethyl sulfoxide-assay buffer) was dispensed into a DELFIA Streptavidin-coated clear plate (PerkinElmer Inc., product number 4009-0010). Then, 10 μl of an ATP/substrate/metal solution of QuickScout Screening Assist™ ELISA was added. Additionally, 20 μl of the kinase solution diluted with the assay buffer was added to initiate a reaction. For a blank, only 20 μl of the assay buffer was added. The assay method was in accordance with the protocol of QuickScout Screening Assist™ ELISA. After the reaction, the absorbance at 450 nm in each well was measured using SpectraMax (Molecular Devices, California, U.S.A).

T5 sequence (P10721 26-976): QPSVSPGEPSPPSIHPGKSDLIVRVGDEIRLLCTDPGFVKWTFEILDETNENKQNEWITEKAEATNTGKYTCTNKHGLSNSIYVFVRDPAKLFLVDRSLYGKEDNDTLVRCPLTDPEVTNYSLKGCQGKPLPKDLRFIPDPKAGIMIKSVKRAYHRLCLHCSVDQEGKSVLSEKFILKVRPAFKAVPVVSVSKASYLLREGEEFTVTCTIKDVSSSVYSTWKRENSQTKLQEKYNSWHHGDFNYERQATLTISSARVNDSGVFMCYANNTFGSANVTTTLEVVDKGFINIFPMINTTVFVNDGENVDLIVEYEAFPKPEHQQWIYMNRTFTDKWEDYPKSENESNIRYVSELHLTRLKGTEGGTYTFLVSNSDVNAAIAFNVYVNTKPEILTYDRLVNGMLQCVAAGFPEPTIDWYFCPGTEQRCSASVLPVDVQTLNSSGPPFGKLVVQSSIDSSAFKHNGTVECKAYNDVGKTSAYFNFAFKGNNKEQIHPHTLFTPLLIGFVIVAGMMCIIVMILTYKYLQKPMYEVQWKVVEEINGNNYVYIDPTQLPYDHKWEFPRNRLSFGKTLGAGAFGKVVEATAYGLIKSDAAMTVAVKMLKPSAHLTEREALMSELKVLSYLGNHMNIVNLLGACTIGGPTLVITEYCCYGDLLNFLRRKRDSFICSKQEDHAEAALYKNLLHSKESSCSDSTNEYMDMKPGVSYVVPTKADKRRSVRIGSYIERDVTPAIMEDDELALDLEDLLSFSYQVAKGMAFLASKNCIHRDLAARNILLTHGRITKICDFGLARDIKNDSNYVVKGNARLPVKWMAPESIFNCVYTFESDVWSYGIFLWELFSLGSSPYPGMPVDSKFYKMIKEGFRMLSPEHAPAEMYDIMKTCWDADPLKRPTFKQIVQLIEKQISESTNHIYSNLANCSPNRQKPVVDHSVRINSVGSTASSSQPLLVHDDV
T3 sequence (P17948 27-1338): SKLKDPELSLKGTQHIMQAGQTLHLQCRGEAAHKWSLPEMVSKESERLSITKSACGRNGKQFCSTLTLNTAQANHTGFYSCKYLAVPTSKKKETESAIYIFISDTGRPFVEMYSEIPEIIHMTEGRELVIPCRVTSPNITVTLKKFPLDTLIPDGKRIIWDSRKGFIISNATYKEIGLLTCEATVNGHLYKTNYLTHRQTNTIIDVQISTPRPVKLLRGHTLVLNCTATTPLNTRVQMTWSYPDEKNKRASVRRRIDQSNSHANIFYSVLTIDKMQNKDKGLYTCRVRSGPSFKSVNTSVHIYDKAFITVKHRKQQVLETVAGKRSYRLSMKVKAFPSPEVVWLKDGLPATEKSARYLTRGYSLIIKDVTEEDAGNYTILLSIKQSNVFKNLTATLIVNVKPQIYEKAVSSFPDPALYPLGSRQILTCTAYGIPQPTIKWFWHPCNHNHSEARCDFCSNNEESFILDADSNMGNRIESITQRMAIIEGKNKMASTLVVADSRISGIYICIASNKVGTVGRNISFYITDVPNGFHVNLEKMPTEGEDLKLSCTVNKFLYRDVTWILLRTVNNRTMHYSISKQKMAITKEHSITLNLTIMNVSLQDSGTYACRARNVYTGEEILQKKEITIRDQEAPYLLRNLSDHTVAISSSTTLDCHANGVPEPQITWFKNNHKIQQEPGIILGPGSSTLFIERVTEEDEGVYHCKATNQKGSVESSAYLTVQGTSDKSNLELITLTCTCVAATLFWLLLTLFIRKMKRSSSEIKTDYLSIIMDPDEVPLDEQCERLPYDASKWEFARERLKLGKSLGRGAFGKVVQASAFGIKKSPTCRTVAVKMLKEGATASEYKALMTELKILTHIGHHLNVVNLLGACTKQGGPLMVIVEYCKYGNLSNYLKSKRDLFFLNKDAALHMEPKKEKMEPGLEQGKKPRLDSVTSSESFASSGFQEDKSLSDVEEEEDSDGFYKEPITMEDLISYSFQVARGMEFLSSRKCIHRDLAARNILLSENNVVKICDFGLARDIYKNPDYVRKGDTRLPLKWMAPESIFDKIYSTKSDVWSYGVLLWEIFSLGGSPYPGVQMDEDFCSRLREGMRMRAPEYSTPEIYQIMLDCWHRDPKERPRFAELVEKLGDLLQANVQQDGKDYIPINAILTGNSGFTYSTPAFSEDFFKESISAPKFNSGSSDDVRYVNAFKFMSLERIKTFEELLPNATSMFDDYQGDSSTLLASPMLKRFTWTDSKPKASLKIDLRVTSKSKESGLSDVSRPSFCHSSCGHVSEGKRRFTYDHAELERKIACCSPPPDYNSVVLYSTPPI
T1 sequence (P07949 29-1114): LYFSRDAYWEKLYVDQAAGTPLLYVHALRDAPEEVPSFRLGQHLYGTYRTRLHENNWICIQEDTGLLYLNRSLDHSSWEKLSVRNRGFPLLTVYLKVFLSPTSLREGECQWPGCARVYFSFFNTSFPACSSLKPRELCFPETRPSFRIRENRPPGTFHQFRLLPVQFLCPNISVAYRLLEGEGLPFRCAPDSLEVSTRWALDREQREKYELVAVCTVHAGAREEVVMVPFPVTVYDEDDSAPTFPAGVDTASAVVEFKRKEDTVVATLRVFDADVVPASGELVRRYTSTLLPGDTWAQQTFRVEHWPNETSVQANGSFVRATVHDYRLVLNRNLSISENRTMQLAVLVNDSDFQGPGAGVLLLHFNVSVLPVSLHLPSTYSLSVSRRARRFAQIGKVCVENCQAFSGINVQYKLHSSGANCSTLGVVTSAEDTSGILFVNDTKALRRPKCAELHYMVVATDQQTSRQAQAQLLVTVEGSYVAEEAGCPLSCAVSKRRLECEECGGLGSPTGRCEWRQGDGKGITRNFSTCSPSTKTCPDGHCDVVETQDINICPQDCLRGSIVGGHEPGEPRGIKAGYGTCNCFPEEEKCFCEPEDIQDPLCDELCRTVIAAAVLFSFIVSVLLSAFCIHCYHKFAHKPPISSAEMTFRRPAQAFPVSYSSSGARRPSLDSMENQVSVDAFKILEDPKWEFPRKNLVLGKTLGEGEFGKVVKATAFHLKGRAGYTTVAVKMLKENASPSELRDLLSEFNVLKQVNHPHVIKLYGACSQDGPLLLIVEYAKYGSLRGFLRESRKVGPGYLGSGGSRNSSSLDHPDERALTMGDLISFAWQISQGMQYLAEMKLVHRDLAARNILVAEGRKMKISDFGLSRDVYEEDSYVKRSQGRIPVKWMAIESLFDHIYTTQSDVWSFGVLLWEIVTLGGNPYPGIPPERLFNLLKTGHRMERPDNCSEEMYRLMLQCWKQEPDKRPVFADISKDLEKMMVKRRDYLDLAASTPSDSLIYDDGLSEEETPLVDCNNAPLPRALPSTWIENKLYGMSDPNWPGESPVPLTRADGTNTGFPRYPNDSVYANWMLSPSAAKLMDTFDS
T2 sequence (Q04912 25-1400): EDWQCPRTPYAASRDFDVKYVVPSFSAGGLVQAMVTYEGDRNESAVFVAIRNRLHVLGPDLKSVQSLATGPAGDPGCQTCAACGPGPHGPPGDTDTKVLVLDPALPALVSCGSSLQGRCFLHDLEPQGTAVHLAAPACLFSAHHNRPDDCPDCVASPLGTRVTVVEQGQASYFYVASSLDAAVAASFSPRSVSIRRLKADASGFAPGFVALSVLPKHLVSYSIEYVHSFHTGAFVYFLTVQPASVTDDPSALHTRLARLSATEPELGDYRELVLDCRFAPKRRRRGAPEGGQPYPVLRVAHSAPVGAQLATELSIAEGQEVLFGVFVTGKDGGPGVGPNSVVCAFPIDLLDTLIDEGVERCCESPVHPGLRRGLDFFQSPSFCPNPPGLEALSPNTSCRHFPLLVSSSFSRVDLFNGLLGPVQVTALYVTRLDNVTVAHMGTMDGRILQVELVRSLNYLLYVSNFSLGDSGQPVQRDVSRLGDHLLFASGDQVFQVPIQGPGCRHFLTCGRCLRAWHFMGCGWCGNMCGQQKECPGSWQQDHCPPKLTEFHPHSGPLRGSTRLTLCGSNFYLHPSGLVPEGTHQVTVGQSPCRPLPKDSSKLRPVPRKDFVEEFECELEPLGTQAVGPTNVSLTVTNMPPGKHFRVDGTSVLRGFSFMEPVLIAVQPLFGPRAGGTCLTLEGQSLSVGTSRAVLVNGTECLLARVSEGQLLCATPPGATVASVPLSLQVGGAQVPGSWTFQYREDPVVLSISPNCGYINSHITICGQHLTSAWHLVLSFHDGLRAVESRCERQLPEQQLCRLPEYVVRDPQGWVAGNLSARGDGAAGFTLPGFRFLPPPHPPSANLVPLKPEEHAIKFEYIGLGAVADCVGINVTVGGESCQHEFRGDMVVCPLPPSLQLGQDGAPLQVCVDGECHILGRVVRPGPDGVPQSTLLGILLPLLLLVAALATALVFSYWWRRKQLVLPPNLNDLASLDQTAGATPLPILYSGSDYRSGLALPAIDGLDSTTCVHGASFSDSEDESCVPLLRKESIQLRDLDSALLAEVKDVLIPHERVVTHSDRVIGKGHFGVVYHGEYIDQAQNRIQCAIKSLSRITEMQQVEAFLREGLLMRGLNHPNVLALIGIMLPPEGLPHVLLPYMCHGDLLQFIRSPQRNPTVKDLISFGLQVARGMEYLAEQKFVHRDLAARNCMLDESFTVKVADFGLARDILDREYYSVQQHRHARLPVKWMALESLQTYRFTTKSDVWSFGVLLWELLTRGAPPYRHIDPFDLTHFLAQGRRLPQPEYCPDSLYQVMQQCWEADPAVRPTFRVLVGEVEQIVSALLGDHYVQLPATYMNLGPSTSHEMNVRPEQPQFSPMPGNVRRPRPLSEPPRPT

Compound | IC50 (RET) [µM] | IC50 (RON) [µM] | IC50 (VEGFR-1 (FLT 1)) [µM] | IC50 (VEGFR-3 (FLT 4)) [µM] | IC50 (KIT) [µM]
O=C(Nc1cc(Oc2cc(F)c(NC(=O)C3(C(=O)Nc4ccc(F)cc4)CC3)cc2F)ccn1)N1CC(CO)C1 [N-(2,5-Difluoro-4-{[2-({[3-(hydroxymethyl)azetidin-1-yl]carbonyl}amino)pyridin-4-yl]oxy}phenyl)-N′-(4-fluorophenyl)cyclopropane-1,1-dicarboxamide] | 0.028 | 0.0026 | 0.014 | 0.0062 | 0.14
CN1CCN(C2CCN(C(=O)Nc3cc(Oc4cc(F)c(NC(=O)C5(C(=O)Nc6ccc(F)cc6)CC5)cc4F)ccn3)CC2)CC1 [N-(2,5-Difluoro-4-{[2-({[4-(4-methylpiperazin-1-yl)piperidin-1-yl]carbonyl}amino)pyridin-4-yl]oxy}phenyl)-N′-(4-fluorophenyl)cyclopropane-1,1-dicarboxamide] | 0.038 | 0.0024 | 0.021 | 0.022 | 0.35
O=C(Nc1cc(Oc2ccc(NC(=O)C3(C(=O)Nc4ccc(F)cc4)CC3)c(F)c2)ccn1)N1CCC1 [N-[4-({2-[(Azetidin-1-ylcarbonyl)amino]pyridin-4-yl}oxy)-2-fluorophenyl]-N′-(4-fluorophenyl)cyclopropane-1,1-dicarboxamide] | 0.099 | 0.026 | 0.071 | 0.036 | 0.38

Second part, the molecule after the results:

IC50 (RET) [µM] | IC50 (RON) [µM] | IC50 (VEGFR-1 (FLT 1)) [µM] | IC50 (VEGFR-3 (FLT 4)) [µM] | IC50 (KIT) [µM] | Compound
0.036 | 0.0018 | 0.012 | 0.011 | 0.56 | CN1CCC(N(C)C(=O)Nc2cc(Oc3cc(F)c(NC(=O)C4(C(=O)Nc5ccc(F)cc5)CC4)cc3F)ccn2)CC1 [N-(2,5-Difluoro-4-{[2-({[methyl(1-methylpiperidin-4-yl)amino]carbonyl}amino)pyridin-4-yl]oxy}phenyl)-N′-(4-fluorophenyl)cyclopropane-1,1-dicarboxamide]
0.044 | 0.0046 | 0.026 | 0.01 | 0.37 | O=C(Nc1cc(Oc2cc(F)c(NC(=O)C3(C(=O)Nc4ccc(F)cc4)CC3)cc2F)ccn1)N1CC(O)C1 [N-{2,5-Difluoro-4-[(2-{[(3-hydroxyazetidin-1-yl)carbonyl]amino}pyridin-4-yl)oxy]phenyl}-N′-(4-fluorophenyl)cyclopropane-1,1-dicarboxamide]
